# Experiments:
# PI3K alfa = molecular target: T1, PI3K alfa (Homo sapiens, UniProt P42336); assay: PI3 kinase assay (Kinase-Glo luminescence), PI3K alfa; format: biochemical; details: Enzymatic Data; read-out: PI3K alfa IC50 [umol]
# T1 construct: for the p110-a subunit (with a deletion of the first 20 amino acids); His tag (C); made in house; host or cells: baculovirus; Tn5 (Trichoplusia ni) or TiniPro insect cells
# Method in brief: (§1)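 Recombinant PI3K constructs (alfa 10 nM, delta 10 nM, gamma 150 nM) with 1 μM ATP and 10 μg/mL phosphatidylinositol in Tris pH 7.5, MgCl2, NaCl, CHAPS, DTT; 60 min (alfa, delta) or 120 min (gamma) at room temperature. ATP depletion read by Kinase-Glo luminescence; IC50 from 4-parameter logistic fit over 8 concentrations.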
# PI3K gamma = molecular target: T2, PI3K gamma (Homo sapiens, UniProt P48736); assay: PI3 kinase assay (Kinase-Glo luminescence), PI3K gamma; format: biochemical; details: Enzymatic Data; read-out: PI3K gamma IC50 [umol]
# T2 construct: PI3Kγ BV-950 p110g(D144aa)-C-Term His Tag; His tag (C); made in house; host or cells: construct from the Roger Williams lab (MRC LMB) in pVL1393; baculovirus; Tn5 (Trichoplusia ni) or TiniPro insect cells
# Method in brief: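 Percent inhibition at eight concentrations (typically 10 to 0.003 […]) fitted to a four-parameter logistic model to give IC50. Reaction initiated with ATP; final ATP 1 μM and phosphatidylinositol 10 μg/mL; ATP consumption read by Kinase-Glo luminescence.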
# PI3K beta = molecular target: T3, PI3K beta (Homo sapiens, UniProt P42338); assay: PI3 kinase assay (Kinase-Glo luminescence), PI3K beta; format: biochemical; details: Enzymatic Data; read-out: PI3K beta IC50 [umol]
# T3 construct: for the full-length p110-b subunit are generated and fused by overlapping PCR; His tag (C); made in house; host or cells: baculovirus; Tn5 (Trichoplusia ni) or TiniPro insect cells
# Method in brief: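 PI3Kβ (25 nM, BV-949) with 10 μg/mL phosphatidylinositol in Tris pH 7.5/MgCl2/NaCl/CHAPS/DTT buffer; reaction started with 1 μM ATP, 60 min at room temperature. ATP depletion read by Kinase-Glo luminescence; 8-point dilutions, IC50 by four-parameter logistic fit.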
# PI3K delta = molecular target: T4, PI3K delta (Homo sapiens, UniProt O00329); assay: PI3 kinase assay (Kinase-Glo luminescence), PI3K delta; format: biochemical; details: Enzymatic Data; read-out: PI3K delta IC50 [umol]
# T4 construct: for the full-length p110-d subunit are generated and fused by overlapping PCR; His tag (C); made in house; host or cells: baculovirus; Tn5 (Trichoplusia ni) or TiniPro insect cells
# Method in brief: as §1
# T1 sequence (P42336 with tags, fused parts or gaps limits assumed): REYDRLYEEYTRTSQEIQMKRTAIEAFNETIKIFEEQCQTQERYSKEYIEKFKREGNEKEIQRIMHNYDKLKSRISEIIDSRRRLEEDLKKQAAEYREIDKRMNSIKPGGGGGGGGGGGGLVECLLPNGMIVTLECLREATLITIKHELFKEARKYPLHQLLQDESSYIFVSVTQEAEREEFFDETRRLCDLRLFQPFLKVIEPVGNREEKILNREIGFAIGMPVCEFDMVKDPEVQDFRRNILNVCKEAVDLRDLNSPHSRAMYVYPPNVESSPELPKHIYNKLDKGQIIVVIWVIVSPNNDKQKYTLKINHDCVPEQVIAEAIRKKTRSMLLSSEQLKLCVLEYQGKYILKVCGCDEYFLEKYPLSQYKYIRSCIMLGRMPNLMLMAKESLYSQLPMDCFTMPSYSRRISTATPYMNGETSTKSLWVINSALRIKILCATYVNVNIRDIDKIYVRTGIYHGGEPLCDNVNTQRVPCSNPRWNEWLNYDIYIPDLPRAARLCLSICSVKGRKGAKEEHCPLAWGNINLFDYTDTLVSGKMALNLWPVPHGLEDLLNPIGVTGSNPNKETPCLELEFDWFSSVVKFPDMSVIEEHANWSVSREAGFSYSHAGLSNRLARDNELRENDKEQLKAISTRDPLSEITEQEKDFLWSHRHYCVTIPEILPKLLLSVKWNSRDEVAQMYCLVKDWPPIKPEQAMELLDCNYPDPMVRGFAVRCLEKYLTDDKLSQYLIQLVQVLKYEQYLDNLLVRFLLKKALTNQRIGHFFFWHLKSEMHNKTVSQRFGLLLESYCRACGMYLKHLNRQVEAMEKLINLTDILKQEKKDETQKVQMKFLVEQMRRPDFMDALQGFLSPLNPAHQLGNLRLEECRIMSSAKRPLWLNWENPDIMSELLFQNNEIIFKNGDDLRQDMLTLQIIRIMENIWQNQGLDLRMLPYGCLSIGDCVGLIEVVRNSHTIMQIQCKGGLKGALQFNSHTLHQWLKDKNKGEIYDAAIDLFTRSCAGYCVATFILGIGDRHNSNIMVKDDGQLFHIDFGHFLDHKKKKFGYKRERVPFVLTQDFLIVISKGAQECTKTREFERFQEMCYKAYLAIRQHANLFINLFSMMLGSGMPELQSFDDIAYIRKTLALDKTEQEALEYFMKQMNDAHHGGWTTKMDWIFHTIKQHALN
# T3 sequence (P42338 with tags, fused parts or gaps limits assumed): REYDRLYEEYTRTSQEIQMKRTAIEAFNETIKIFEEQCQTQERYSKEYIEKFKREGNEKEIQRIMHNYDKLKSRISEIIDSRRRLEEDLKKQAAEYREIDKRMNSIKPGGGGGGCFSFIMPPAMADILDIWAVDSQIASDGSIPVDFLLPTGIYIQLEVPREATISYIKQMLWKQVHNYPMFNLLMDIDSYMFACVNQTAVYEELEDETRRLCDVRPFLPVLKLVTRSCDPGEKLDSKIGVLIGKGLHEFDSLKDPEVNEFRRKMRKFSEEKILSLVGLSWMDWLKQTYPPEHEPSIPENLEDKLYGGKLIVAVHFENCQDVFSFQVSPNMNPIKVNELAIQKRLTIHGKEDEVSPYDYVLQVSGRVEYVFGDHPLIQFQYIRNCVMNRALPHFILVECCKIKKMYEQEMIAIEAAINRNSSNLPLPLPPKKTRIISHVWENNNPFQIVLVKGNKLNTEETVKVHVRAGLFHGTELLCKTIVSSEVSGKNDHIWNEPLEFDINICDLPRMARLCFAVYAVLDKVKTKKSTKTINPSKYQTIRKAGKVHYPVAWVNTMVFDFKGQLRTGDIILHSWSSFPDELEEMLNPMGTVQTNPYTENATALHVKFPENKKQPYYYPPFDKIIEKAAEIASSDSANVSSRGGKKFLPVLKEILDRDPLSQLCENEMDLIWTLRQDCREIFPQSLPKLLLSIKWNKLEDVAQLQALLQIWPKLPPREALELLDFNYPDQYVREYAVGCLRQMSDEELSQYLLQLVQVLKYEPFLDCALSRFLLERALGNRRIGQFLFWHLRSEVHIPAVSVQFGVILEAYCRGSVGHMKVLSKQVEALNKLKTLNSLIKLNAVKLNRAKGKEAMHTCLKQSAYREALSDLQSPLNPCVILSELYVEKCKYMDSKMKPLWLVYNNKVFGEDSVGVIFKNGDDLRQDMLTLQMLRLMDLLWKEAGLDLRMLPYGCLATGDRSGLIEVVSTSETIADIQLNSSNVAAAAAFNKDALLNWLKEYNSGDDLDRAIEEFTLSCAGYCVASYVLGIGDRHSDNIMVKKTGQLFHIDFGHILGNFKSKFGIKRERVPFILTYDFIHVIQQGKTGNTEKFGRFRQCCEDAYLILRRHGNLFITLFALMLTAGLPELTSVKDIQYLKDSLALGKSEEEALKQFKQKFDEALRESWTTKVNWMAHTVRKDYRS
# T4 sequence (O00329 with tags, fused parts or gaps limits assumed): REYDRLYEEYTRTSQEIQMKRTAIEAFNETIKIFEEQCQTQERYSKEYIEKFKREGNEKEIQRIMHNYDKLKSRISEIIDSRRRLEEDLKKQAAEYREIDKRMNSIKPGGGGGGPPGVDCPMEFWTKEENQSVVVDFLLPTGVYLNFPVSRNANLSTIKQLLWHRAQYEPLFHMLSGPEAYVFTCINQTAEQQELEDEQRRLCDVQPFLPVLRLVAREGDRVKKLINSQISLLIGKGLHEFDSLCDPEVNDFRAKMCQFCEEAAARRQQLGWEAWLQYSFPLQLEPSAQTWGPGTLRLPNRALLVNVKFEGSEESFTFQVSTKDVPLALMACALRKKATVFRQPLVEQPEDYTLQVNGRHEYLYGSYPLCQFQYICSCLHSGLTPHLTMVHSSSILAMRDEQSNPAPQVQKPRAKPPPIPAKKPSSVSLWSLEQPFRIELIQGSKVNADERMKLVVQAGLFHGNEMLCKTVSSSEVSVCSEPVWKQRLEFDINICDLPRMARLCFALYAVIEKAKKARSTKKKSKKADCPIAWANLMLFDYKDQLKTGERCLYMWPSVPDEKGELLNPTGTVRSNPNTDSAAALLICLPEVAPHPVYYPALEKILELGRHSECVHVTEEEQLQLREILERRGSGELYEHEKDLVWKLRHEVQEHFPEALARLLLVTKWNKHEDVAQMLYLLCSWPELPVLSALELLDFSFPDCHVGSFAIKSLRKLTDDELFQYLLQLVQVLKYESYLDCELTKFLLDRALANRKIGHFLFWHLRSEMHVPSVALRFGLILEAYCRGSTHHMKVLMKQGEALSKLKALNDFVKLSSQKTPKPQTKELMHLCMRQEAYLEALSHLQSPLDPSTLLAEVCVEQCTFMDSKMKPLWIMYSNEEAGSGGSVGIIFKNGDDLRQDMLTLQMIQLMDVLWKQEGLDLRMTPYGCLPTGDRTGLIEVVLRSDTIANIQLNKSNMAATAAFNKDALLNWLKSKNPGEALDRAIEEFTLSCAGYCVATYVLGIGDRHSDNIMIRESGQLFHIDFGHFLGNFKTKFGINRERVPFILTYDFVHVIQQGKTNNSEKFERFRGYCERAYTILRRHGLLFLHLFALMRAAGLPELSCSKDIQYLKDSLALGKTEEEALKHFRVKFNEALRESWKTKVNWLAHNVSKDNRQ
# T2 sequence (P48736 144-1102 limits assumed): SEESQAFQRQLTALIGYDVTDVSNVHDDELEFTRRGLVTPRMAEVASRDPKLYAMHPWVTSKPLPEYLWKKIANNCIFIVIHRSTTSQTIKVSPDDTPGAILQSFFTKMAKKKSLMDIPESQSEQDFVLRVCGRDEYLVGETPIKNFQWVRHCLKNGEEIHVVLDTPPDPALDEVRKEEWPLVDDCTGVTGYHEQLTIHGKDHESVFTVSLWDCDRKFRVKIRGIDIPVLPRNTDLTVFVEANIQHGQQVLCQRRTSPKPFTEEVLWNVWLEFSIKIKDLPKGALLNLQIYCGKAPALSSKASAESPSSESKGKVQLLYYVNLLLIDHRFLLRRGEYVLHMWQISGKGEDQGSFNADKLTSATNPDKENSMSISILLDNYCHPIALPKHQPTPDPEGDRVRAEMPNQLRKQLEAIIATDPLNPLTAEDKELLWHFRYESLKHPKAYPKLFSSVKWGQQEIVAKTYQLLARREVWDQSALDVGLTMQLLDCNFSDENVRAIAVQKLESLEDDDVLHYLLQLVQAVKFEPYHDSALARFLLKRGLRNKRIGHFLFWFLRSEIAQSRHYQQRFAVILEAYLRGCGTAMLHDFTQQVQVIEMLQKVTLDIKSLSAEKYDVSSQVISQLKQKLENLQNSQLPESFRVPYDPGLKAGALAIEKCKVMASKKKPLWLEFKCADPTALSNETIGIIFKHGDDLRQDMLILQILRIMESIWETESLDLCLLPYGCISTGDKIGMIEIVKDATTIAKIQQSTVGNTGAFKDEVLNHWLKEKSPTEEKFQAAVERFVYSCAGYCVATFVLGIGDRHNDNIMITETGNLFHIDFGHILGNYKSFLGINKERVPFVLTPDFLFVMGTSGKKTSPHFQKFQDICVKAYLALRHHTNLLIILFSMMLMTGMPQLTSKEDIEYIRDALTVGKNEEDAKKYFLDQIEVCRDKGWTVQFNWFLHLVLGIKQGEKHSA
IC50 (PI3K alfa) [µM],melting point [°C],IC50 (PI3K gamma) [µM],IC50 (PI3K beta) [µM],IC50 (PI3K delta) [µM],Structure (SMILES)
0.039,179 to 181,0.516,1.02,0.113,"COC(=O)NCC1(COc2ccc(-c3ccc4ncc(-c5cnc(N)c(C(F)(F)F)c5)n4n3)cc2)COC1 [Example 173, (3-{4-[3-(6-Amino-5-trifluoromethyl-pyridin-3-yl)-imidazo[1,2-b]Pyridazin-6-yl]-phenoxymethyl}-oxetan-3-ylmethyl)-carbamic acid methyl ester]"
0.035,205 to 207,2.04,1.48,0.231,CC(C)C(=O)NCC1(COc2ccc(-c3ccc4ncc(-c5cnc(N)c(C(F)(F)F)c5)n4n3)cc2)COC1 [Example 167]
0.011,290 to 292,0.585,0.025,0.014,"Nc1ncc(-c2ccc3ncc(-c4ccc(CO)cc4)n3n2)cc1C(F)(F)F [Example 168, {4-[6-(6-Amino-5-trifluoromethyl-pyridin-3-yl)-imidazo[1,2-b]pyridazin-3-yl]-phenyl}-methanol]"
0.096,220 to 222,0.81,3.29,0.369,"COC(=O)NC1(COc2ccc(-c3ccc4ncc(-c5cnc(N)c(C(F)(F)F)c5)n4n3)cc2)COC1 [Example 148, (3-{4-[3-(6-Amino-5-trifluoromethyl-pyridin-3-yl)-imidazo[1,2-b]pyridazin-6-yl]-phenoxymethyl}-oxetan-3-yl)-carbamic acid methyl ester]"
0.061,198 to 200,1.31,0.496,0.227,"Nc1ncc(-c2cnc3ccc(-c4ccc(OCC5(N)COC5)cc4)nn23)cc1C(F)(F)F [Example 147, 5-{6-[4-(3-Amino-oxetan-3-ylmethoxy)-phenyl]-imidazo[1,2-b]pyridazin-3-yl}-3-trifluoromethyl-pyridin-2-yl amine]"
0.012,209 to 211,1.08,0.18,0.016,Nc1ncc(-c2ccc3ncc(-c4ccc(CN5CCC(C(=O)N6CCCC6)CC5)cc4)n3n2)cc1C(F)(F)F [Example 181]

# Reference: patent publication US20100311729A1, “Substituted imidazopyridazines and pyrrolopyrimidines as lipid kinase inhibitors” (priority 2007, published 2010)
